We go through 2 compounds from patent US8367116B2, “Buoyant polymer particles for delivery of therapeutic agents to the central nervous system” (Seacoast Neuroscience, Inc., priority 2002, dated 2013).

For series [1], the system named is rat middle cerebral artery occlusion (MCAo) stroke model. Briefly: Rat MCAo stroke model, drugs delivered into the ventricle (CSF) by osmotic pump (FIG. 4, FIG. 5). The series is classed as in vivo, Sprague-Dawley rat. As to conditions: given within the CSF. On the procedure: The parietal branch of the middle cerebral artery of the Sprague-Dawley rat is permanently occluded with a 10-0 nylon suture. The common carotid arteries are occluded temporarily for one hour. All drugs and vehicle are given beginning two hours post ischemia. Rats are sacrificed 24-hours later and the size of the infarct measured as a percent infarction of the total volume of the brain (mm^3) using imaging analysis. […], drugs are administered into the ventricle using an Alza osmotic pump (#20010) at a flow rate of 8 ul/hr over 24 hours.
Animals were treated with vehicle (n=23), Antioxidant (n=8), Prodrug (n=7) or an NMDA antagonist (n=7).

The conditions of series [2]: cited from earlier work.
Series [3] relates to rats with unilateral cortical infarcts (stroke). As to conditions: cited from earlier work.
For series [4], the system named is corticospinal tract axons. Nature of the series: Severed corticospinal tract model, inosine infused into the motor cortex, axon tracing. The conditions noted are these: after 14 days of treatment. It counts as in vivo, rats. The source says: In one model, one side of the corticospinal tract in rats is severed as it courses through the brainstem. Inosine is then infused directly into the motor cortex of the brain, the site of origin for those axons descending into the non-injured side of the corticospinal tract. After 14 days of treatment, newly grown axon branches are traced by injecting a dye into the treated nerve cells in the cortex. Animals are then sacrificed and the spinal cord examined for histology evidence of new axon growth. […] These new axonal branches then continued to descend down the injured side of the corticospinal tract, effectively replacing severed axons with new ones. […] The number of collateral (new) axons ranged up to 2,500 per treated animal, compared to 28-170 axons seen in control animals.

Where [5] appears, read: adult rats with unilateral cortical infarcts.

Regarding `C[N+](C)(C)CCOP(=O)(O)OP(=O)([O-])OC[C@H]1O[C@@H](n2ccc(N)nc2=O)[C@H](O)[C@@H]1O` [Citicholine, Cytidine-5′-diphosphocholine], the “dose response on infarct” value in series [1] is “dose response effect”. For the same compound, in series [2] (administered i.v.), the “citicholine dose taken up into brain tissue” value is “about 2%”. Also, in series [2] (administered orally), the “citicholine dose penetrating into brain tissue” value is reported as “about 0.5%”. The “initial dose found in the brain” value in series [2] (given through the blood stream) was “less than 1%”.

For `OC[C@H]1O[C@@H](n2cnc3c(O)ncnc32)[C@H](O)[C@@H]1O` [Inosine], the “GAP-43 stained newly growing axons on the denervated side” value in series [3] (FIG. 7 B, E, after stroke) is recorded as “many”. Besides, in series [3] (FIG. 7 D, after stroke), the “axons crossing from undamaged side of brain to denervated side of spinal cord” value is “causes many axons (red) to cross over”. Also, in series [3] (setting [5]), the “new projections to denervated areas of midbrain and spinal cord” value was “stimulated neurons on the undamaged side of the brain to extend new projections”; the “performance on behavioral measures” value is recorded as “improved performance”. For the same compound, the “recovery of limb function” value in series [3] (intravenous administration, same animal model) is recorded as “little or no significant recovery”. Also, the “collateral sprouting of axons from uninjured to injured side of corticospinal tract” value in series [4] (almost all treated animals) is “extensive collateral sprouting of axons”. Further, in series [4] (control animals 28-170 axons), the “number of collateral (new) axons per treated animal” value was “up to 2,500”.
